From US20100093811A1 (priority 2007, published 2010)
Where two headings read alike, the source gives them in different places.

Columns and labels:
wild-type HIV-1 protease = wild-type HIV-1 protease (Human immunodeficiency virus type 1 group M subtype B, UniProt P04585); assay: Assay for inhibition of microbial expressed HIV protease; format: biochemical; settings: wild-type HIV-1 protease expressed in E. coli, peptide substrate, pH 5.5; read-out: Enzyme Inhibition - IC50
Procedure: Assay for Inhibition of Microbial Expressed HIV Protease
Inhibition studies of the reaction of the protease (which was expressed in Eschericia coli) with a peptide substrate [Val-Ser-Gln-Asn-(betanapthyl)Ala-Pro-Ile-Val]. The inhibitor is first preincubated with the enzyme in assay buffer (50 mM sodium acetate, pH 5.5, 100 mM NaCl, and 0.1% BSA) for 30 minutes at room temperature. Substrate is added to 440 micromolar in a total volume of 80 microliters containing 5 picomolar HIV-1 protease, and the reaction is incubated for 1 hour at 30° C. The reaction is quenched by addition of 120 microliters of 10% phosphoric acid, and product formation is determined after separation of product and substrate on a Vydac C18 column connected to an Alliance high performance liquid chromatography system (Waters Corporation). The extent of inhibition of the reaction is determined from the peak area of the products.

[1] = tested on: acute HIV infection of T-lymphoid cells; assay: Assay for inhibition of HIV replication (spread assay); format: cell-based, HIV-1; settings: Human immunodeficiency virus 1, T-lymphoid
Procedure: • Assay for Inhibition of HIV Replication
Assays for the inhibition of acute HIV infection of T-lymphoid cells were conducted in accordance with Vacca, J. P. et al., Proc. Natl. Acad. Sci. USA 1994, 91: 4096.

| Structure (SMILES) | IC50 (wild-type HIV-1 protease) [nM] | IC95 ([1]; read-out: Spread - IC95) [nM] | IC95 ([1]; read-out: Spread - IC95 (nM)) [nM] |
| --- | --- | --- | --- |
| COC(=O)N[C@H](C(=O)N[C@H](CCC[C@@H](CO)N(CCC(C)C)S(=O)(=O)c1ccc(Cl)cc1)C1CC1)C(c1ccccc1)c1ccccc1 [Example E4, N-{(1R,5S)-5-[[(4-chlorophenyl)sulfonyl](3-methylbutyl)amino]-1-cyclopropyl-6-hydroxyhexyl}-Nα-(methoxycarbonyl)-β-phenyl-L-phenylalaninamide] | 0.201 | 22 | – |
| COC(=O)N[C@H](C(=O)N[C@H](CCC[C@@H](CO)N(CCC(C)C)S(=O)(=O)c1ccc(C(C)=O)cc1)C1CC1)C(c1ccc(F)cc1)c1ccc(F)cc1 [Example E5, N-{(1R,5S)-5-[[(4-acetylphenyl)sulfonyl](3-methylbutyl)amino]-1-cyclopropyl-6-hydroxyhexyl}-4-fluoro-β-(4-fluorophenyl)-Nα-(methoxycarbonyl)-L-phenylalaninamide] | 0.053 | 47 | – |
| COC(=O)N[C@H](C(=O)N[C@H](CCC[C@@H](CO)N(CC(C)C)S(=O)(=O)c1ccc2ncsc2c1)C1CC1)C(c1ccccc1)c1ccccc1 [Example E6, N-{(1R,5S)-5-[(1,3-benzothiazol-6-ylsulfonyl)(isobutyl)amino]-1-cyclopropyl-6-hydroxyhexyl}-Nα-(methoxycarbonyl)-β-phenyl-L-phenylalaninamide] | 0.352 | 27 | – |
| COC(=O)N[C@H](C(=O)N[C@H](CCC[C@@H](CO)N(CCC(C)C)S(=O)(=O)c1ccc(N)cc1)C1CC1)C(c1ccc(F)cc1)c1ccc(F)cc1 [Example E7, N-{(1R,5S)-5-[[(4-aminophenyl)sulfonyl](3-methylbutyl)amino]-1-cyclopropyl-6-hydroxyhexyl}-4-fluoro-β-(4-fluorophenyl)-Nα-(methoxycarbonyl)-L-phenylalaninamide] | 0.066 | 39 | – |
| COC(=O)N[C@@H](Cc1ccccc1Cl)C(=O)N[C@H](CCC[C@@H](CO)N(CCC(C)C)S(=O)(=O)c1ccc2ncsc2c1)C1CC1 [Example E8, N-{(1R,5S)-5-[(1,3-benzothiazol-6-ylsulfonyl)(3-methylbutyl)amino]-1-cyclopropyl-6-hydroxyhexyl}-2-chloro-Nα-(methoxycarbonyl)-L-phenylalaninamide] | 1.4 | 195 | – |
| COC(=O)N[C@@H](Cc1cccc2ccccc12)C(=O)N[C@H](CCC[C@@H](CO)N(CCC(C)C)S(=O)(=O)c1ccc(N)cc1)C1CC1 [Example E9, methyl [(1S)-2-({(1R,5S)-5-[[(4-aminophenyl)sulfonyl](3-methylbutyl)amino]-1-cyclopropyl-6-hydroxyhexyl}amino)-1-(1-naphthylmethyl)-2-oxoethyl]carbamate] | 0.354 | 117 | – |
| CCCN([C@H](CO)CCC[C@H](C)NC(=O)[C@@H](NC(=O)OC)C(c1ccccc1)c1ccccc1)S(=O)(=O)c1ccc(N)cc1 [Example F2, N-{(1S,5S)-5-[[(4-aminophenyl)sulfonyl](propyl)amino]-6-hydroxy-1-methylhexyl}-Nα-(methoxycarbonyl)-β-phenyl-L-phenylalaninamide] | 0.028 | – | 23 |
| CC[C@@H](CCC[C@@H](CO)N(CCC(C)C)S(=O)(=O)c1ccc(N)cc1)NC(=O)[C@H](Cc1ccccc1Br)NC(=O)OC [Example F3, N-{(1S,5S)-5-[[(4-aminophenyl)sulfonyl](3-methylbutyl)amino]-1-ethyl-6-hydroxyhexyl}-2-bromo-Nα-(methoxycarbonyl)-L-phenylalaninamide] | 0.196 | 25 | – |
| COC(=O)N[C@H](C(=O)N[C@@H](C)CCC[C@@H](CO)N(CCCF)S(=O)(=O)c1ccc(N)cc1)C(c1ccccc1)c1ccccc1 [Example F4, N-{(1S,5S)-5-[[(4-aminophenyl)sulfonyl](3-fluoropropyl)amino]-6-hydroxy-1-methylhexyl}-Nα-(methoxycarbonyl)-β-phenyl-L-phenylalaninamide] | 0.055 | 65 | – |
